This note sets out measurements from PubChem BioAssay (NCI).

SMILES strings stand for the structures.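 Protocol summary: plate cells (96-well), add compound at 5 concentrations, incubate 48 h, interpolate endpoints linearly. At the GI50, growth is halved. TGI: concentration producing complete growth inhibition.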

Some test systems named below: UO-31 renal; HOP-62 NSCLC; TK-10 renal; SF-295 CNS; LOX IMVI melanoma; COLO 205 colon; SK-MEL-2 melanoma; OVCAR-5 ovarian; ACHN renal; SR leukemia.
Holding throughout (experiment): DTP human tumour cell line panel, 48 h

`Nc1nc(/C=C\c2ccc([N+](=O)[O-])s2)nc(N2CCCC2)n1`: the GI50 (usually the concentration giving 50% growth inhibition) in the assay on UO-31 renal was 7.58 µM; in the assay with HOP-62 NSCLC, 13.5 µM; with TK-10 renal, 6.27 µM; with SF-295 CNS it was 4.4 µM; in the assay with LOX IMVI melanoma, 0.198 µM; in the assay on COLO 205 colon, 0.524 µM. Also, the GI50 was 12.9 µM in the assay with SK-MEL-2 melanoma, 15.7 µM in the assay on OVCAR-5 ovarian, 0.743 µM in the assay on ACHN renal and 1.62 µM in the assay on SR leukemia. In addition, the TGI (usually the concentration giving total growth inhibition) in the assay on UO-31 renal was 22.2 µM; in the assay with HOP-62 NSCLC, 26.7 µM; in the assay on TK-10 renal, 20.9 µM; with SF-295 CNS it was 21.3 µM; in the assay on LOX IMVI melanoma, 2.41 µM; in the assay with COLO 205 colon it was 3.5 µM. In addition, the TGI is 27.9 µM with SK-MEL-2 melanoma, 30.7 µM in the assay with OVCAR-5 ovarian, 10.9 µM in the assay on ACHN renal and 6.49 µM in the assay on SR leukemia.

Take `COc1c(OC[C@H](O)CN2CCOCC2)ccc2c3n(c(=NC(=O)c4cccnc4C)nc12)CCN3`: the GI50 was 0.263 µM in the assay with UO-31 renal; 1.41 µM with HOP-62 NSCLC; 0.0941 µM with TK-10 renal; 0.541 µM with SF-295 CNS; 1.57 µM in the assay with LOX IMVI melanoma; 0.918 µM in the assay with COLO 205 colon. The GI50 was above 50 µM with SK-MEL-2 melanoma, 0.171 µM in the assay on OVCAR-5 ovarian, 0.411 µM in the assay on ACHN renal and above 50 µM in the assay on SR leukemia. For the same compound, the TGI with UO-31 renal is above 50 µM; with HOP-62 NSCLC it was above 50 µM; in the assay with TK-10 renal, above 50 µM; in the assay on SF-295 CNS it was 17.2 µM; in the assay on LOX IMVI melanoma, above 50 µM; in the assay on COLO 205 colon, above 50 µM. Besides, the TGI in the assay with SK-MEL-2 melanoma, in the assay with OVCAR-5 ovarian, in the assay with ACHN renal and in the assay with SR leukemia was above 50 µM in each case.

Consider `O=C1C=CC(=O)c2cc3cc(CBr)ccc3cc21`, for which the GI50 in the assay with UO-31 renal is 3.59 µM; with HOP-62 NSCLC, 16 µM; with TK-10 renal, 3.54 µM; in the assay on SF-295 CNS, 25.9 µM; with LOX IMVI melanoma, 1.44 µM; in the assay with COLO 205 colon, 4.19 µM. In addition, the GI50 was 33.3 µM with SK-MEL-2 melanoma, 9.96 µM in the assay with OVCAR-5 ovarian, 1.82 µM with ACHN renal and 0.0371 µM in the assay with SR leukemia. Also, the TGI in the assay on UO-31 renal is above 100 µM; with HOP-62 NSCLC, 37.8 µM; with TK-10 renal, 16.7 µM; in the assay on SF-295 CNS, above 73.9 µM; in the assay on LOX IMVI melanoma, 3.02 µM; with COLO 205 colon, 28.7 µM. The TGI in the assay with SK-MEL-2 melanoma was above 83.5 µM; in the assay on OVCAR-5 ovarian it was 33.6 µM; with ACHN renal it was 3.71 µM; with SR leukemia it was 0.0923 µM.

Regarding `CCOc1ccccc1NC(=O)C(=O)CC(=O)c1sc(Nc2nnc(-c3ccc(Cl)c(Cl)c3)o2)nc1C`, the TGI in the assay with UO-31 renal, in the assay on HOP-62 NSCLC, in the assay on TK-10 renal, with SF-295 CNS, in the assay on LOX IMVI melanoma and in the assay with COLO 205 colon was above 100 µM in each case. The TGI in the assay on SK-MEL-2 melanoma, in the assay on OVCAR-5 ovarian, with ACHN renal and in the assay on SR leukemia was above 100 µM each time.

Regarding `CN1C(=O)N(C)C2C1NN=c1s/c(=C\c3ccc(Cl)cc3Cl)c(=O)n12` (stereo not given), the GI50 is 0.892 µM in the assay on UO-31 renal; 0.116 µM in the assay with HOP-62 NSCLC; 10.2 µM in the assay on TK-10 renal; 0.0579 µM with SF-295 CNS; 0.159 µM in the assay on LOX IMVI melanoma; 0.0951 µM in the assay with COLO 205 colon. The GI50 was 11.7 µM in the assay with SK-MEL-2 melanoma, 0.601 µM in the assay with OVCAR-5 ovarian, 0.236 µM in the assay on ACHN renal and 0.0557 µM in the assay with SR leukemia. The TGI in the assay on UO-31 renal is above 71.8 µM; with HOP-62 NSCLC it was 30.2 µM; in the assay on TK-10 renal, above 92.4 µM; in the assay with SF-295 CNS, 15.3 µM; with LOX IMVI melanoma, above 100 µM; in the assay with COLO 205 colon, 2.58 µM. The TGI with SK-MEL-2 melanoma, in the assay with OVCAR-5 ovarian, with ACHN renal and in the assay on SR leukemia was above 100 µM each time.

For the compound `C1CN2CCN3CCN4CCN1[P+]243`, the concentration for total growth inhibition (TGI) with UO-31 renal, in the assay with HOP-62 NSCLC, in the assay with TK-10 renal, with SF-295 CNS, in the assay on LOX IMVI melanoma and with COLO 205 colon was above 100 µM throughout. Besides, the TGI in the assay on SK-MEL-2 melanoma, in the assay on OVCAR-5 ovarian, with ACHN renal and in the assay on SR leukemia was above 100 µM throughout.

For the compound `CCN1CCC(O)(c2ccc(OC)cc2)C(C(=O)c2ccc(OC)cc2)C1` (stereo not given), the TGI in the assay with UO-31 renal is 35.3 µM; in the assay with HOP-62 NSCLC, above 100 µM; in the assay with TK-10 renal, 10.4 µM; with SF-295 CNS, above 100 µM; in the assay with LOX IMVI melanoma, 45.1 µM; with COLO 205 colon it was 55.1 µM. Also, the TGI stood at 38.1 µM in the assay on SK-MEL-2 melanoma, 32.3 µM in the assay on OVCAR-5 ovarian, 30.1 µM in the assay with ACHN renal and 67.1 µM with SR leukemia.

As to `COc1cc2c(c(OC)c1OC)-c1ccc(SC)c(=O)cc1C(NC=O)CC2` (stereo not given), the TGI is above 100 µM in the assay on UO-31 renal; above 90.8 µM in the assay on HOP-62 NSCLC; above 100 µM with TK-10 renal; 0.123 µM in the assay on SF-295 CNS; above 41.1 µM with LOX IMVI melanoma; below 0.01 µM in the assay on COLO 205 colon. For the same compound, the TGI with SK-MEL-2 melanoma was above 94.7 µM; in the assay on OVCAR-5 ovarian, above 94.3 µM; in the assay with ACHN renal, above 100 µM; in the assay with SR leukemia, 36.6 µM.
